Data published in ChEMBL document CHEMBL5653631, “A Potent and Selective ULK1 Inhibitor Suppresses Autophagy and Sensitizes Cancer Cells to Nutrient Stress” (iScience, 2018).
Blank lines part the entries; values can stand above or below the compound they belong to.

Assays:
[1] = biological target: T1, Eukaryotic translation initiation factor 2-alpha kinase 3 (Homo sapiens) (UniProt Q9NZJ5); assay: Inhibition of human recombinant PEK at 500 nM in presence of ATP by radiometric assay relative to control
T1 sequence (whole entry): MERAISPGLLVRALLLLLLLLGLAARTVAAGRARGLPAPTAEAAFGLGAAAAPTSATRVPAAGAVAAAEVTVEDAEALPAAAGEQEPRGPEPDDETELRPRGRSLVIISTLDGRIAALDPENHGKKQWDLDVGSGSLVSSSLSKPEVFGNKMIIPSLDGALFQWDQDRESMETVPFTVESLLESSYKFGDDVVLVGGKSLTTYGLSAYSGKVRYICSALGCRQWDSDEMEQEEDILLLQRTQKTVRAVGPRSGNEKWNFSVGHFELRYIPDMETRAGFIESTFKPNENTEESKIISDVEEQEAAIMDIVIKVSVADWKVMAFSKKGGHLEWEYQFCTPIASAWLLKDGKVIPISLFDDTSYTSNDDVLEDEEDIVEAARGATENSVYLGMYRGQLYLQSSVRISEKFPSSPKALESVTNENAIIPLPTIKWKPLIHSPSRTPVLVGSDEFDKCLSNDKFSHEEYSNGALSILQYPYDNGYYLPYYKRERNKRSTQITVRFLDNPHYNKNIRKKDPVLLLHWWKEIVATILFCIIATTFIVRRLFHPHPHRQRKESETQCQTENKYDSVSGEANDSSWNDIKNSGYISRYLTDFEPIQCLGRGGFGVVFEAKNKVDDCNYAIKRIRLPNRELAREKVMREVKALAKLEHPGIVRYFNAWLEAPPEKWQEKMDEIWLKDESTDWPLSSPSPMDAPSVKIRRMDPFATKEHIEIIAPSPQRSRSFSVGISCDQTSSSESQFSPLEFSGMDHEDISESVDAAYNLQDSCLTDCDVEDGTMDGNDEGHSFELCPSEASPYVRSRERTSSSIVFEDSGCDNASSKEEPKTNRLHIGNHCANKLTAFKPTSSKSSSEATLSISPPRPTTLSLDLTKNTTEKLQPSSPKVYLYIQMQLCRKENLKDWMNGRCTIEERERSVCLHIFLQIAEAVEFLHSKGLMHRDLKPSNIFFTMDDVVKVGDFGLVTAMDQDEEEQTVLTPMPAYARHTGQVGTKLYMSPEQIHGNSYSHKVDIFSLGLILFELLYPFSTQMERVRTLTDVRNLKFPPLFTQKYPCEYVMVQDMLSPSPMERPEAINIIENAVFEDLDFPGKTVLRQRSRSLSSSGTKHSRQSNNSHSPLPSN

[2] = biological target: Serine/threonine-protein kinase tousled-like 2 (Homo sapiens) (UniProt Q86UE8); assay: Inhibition of human recombinant TLK2 at 500 nM related to control ULK1
Sequence of Serine/threonine-protein kinase tousled-like 2 (Homo sapiens) (Q86UE8 whole entry, looked up): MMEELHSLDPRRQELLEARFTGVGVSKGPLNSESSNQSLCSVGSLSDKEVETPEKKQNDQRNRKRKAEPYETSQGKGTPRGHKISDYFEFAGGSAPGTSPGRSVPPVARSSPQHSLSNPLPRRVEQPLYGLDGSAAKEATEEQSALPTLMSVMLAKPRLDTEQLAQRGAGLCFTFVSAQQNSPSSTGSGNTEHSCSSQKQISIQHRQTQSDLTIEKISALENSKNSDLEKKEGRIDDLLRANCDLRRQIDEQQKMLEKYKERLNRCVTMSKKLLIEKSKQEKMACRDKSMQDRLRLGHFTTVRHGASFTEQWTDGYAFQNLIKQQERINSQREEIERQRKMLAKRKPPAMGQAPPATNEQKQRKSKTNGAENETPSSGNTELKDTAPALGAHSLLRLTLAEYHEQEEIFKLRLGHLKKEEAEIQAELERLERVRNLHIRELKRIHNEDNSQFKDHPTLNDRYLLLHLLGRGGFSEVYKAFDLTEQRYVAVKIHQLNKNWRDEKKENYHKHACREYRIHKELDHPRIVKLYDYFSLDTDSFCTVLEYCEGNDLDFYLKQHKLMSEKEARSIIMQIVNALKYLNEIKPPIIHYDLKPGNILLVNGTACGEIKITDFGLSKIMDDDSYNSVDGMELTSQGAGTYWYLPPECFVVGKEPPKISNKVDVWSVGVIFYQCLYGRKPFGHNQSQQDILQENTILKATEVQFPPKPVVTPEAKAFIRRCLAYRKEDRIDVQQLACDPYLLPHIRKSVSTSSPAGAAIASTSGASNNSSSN

[3] = biological target: Death-associated protein kinase 3 (Homo sapiens) (UniProt O43293); assay: Inhibition of human recombinant DAPK3 at 500 nM related to control ULK1
Sequence of Death-associated protein kinase 3 (Homo sapiens) (O43293 whole entry, looked up): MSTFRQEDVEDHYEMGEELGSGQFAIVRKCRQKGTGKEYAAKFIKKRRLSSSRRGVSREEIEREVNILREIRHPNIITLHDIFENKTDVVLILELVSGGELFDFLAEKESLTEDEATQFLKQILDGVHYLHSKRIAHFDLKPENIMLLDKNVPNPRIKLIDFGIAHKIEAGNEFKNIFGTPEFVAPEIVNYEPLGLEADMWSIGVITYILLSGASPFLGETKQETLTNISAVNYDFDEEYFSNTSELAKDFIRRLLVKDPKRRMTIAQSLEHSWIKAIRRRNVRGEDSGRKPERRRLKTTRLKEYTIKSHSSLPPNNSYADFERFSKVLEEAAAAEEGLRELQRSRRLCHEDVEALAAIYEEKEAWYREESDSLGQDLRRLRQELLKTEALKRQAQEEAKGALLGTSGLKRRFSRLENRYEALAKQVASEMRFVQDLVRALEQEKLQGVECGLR

[4] = biological target: Calcium/calmodulin-dependent protein kinase kinase 2 (Homo sapiens) (UniProt Q96RR4); assay: Inhibition of human recombinant CaMKK2 at 500 nM related to control ULK1
Sequence of Calcium/calmodulin-dependent protein kinase kinase 2 (Homo sapiens) (Q96RR4 2-588 limits assumed): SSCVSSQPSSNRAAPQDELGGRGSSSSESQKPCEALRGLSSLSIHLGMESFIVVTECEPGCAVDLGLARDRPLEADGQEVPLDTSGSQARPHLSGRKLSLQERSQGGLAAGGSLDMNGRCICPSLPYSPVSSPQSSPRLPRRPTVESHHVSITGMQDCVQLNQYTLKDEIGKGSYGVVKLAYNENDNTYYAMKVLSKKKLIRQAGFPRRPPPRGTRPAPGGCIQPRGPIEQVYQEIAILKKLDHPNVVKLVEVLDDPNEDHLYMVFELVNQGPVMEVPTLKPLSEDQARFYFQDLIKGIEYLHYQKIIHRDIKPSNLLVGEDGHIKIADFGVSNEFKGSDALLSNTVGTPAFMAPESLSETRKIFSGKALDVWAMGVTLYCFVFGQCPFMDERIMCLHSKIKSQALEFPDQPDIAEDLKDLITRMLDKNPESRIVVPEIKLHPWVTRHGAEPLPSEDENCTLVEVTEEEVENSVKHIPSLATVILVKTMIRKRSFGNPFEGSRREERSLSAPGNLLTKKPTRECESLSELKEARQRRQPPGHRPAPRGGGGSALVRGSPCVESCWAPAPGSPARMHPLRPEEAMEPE

[5] = biological target: Tyrosine-protein kinase JAK1 (Homo sapiens) (UniProt P23458); assay: Inhibition of human recombinant JAK1 at 500 nM in presence of ATP by radiometric assay relative to control
Sequence of Tyrosine-protein kinase JAK1 (Homo sapiens) (P23458 whole entry): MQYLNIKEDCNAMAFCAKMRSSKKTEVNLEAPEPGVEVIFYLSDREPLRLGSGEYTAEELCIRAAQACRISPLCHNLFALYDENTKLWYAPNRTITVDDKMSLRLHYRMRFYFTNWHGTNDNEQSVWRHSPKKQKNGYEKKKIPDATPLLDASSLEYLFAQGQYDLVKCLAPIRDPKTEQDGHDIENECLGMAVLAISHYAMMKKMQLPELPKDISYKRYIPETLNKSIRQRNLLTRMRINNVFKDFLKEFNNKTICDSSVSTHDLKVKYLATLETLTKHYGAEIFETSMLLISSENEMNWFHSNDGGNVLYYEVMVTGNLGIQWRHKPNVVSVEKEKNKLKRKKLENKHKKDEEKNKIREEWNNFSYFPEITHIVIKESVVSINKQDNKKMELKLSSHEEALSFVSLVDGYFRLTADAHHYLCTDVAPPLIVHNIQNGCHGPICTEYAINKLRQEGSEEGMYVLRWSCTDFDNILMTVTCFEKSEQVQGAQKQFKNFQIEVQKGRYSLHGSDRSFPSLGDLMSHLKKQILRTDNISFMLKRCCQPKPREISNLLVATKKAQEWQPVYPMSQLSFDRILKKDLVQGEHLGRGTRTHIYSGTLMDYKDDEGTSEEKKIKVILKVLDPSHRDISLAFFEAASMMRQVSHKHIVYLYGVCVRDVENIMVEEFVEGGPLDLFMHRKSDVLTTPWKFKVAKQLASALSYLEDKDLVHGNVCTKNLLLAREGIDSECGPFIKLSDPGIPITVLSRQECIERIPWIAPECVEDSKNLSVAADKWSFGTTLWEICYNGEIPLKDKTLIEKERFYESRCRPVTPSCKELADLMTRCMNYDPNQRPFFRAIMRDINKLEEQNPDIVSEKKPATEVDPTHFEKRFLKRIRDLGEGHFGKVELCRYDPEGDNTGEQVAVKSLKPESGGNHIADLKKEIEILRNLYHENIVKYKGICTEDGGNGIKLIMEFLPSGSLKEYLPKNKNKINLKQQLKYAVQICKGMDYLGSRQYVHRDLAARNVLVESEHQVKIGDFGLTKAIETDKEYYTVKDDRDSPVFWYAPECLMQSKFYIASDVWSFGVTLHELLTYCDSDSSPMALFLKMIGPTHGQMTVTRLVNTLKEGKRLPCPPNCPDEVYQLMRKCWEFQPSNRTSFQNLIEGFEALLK

[6] = biological target: Cell division cycle 7-related protein kinase (Homo sapiens) (UniProt O00311); assay: Inhibition of human recombinant CDC7 at 40 nM in presence of ATP by radiometric assay relative to control
Sequence of Cell division cycle 7-related protein kinase (Homo sapiens) (O00311 whole entry, looked up): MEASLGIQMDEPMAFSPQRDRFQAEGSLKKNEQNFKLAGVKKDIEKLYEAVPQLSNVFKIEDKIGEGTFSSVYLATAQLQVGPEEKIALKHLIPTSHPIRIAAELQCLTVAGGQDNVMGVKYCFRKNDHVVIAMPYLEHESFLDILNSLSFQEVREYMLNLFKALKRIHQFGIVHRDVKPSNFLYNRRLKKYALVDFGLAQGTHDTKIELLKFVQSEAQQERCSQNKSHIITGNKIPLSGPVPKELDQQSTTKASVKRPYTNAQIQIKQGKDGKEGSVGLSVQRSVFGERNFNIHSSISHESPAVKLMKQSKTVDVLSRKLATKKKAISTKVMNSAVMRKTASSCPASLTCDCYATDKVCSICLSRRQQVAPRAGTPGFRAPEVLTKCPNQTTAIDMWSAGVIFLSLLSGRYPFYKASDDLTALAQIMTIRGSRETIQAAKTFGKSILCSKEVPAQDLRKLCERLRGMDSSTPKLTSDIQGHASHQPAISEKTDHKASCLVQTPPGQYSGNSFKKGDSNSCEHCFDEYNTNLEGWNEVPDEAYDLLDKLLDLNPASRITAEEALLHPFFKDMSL

[7] = biological target: Vascular endothelial growth factor receptor 2 (Homo sapiens) (UniProt P35968); assay: Inhibition of human recombinant KDR at 40 nM related to control ULK1
[8] = biological target: BDNF/NT-3 growth factors receptor (Homo sapiens) (UniProt Q16620); assay: Inhibition of human recombinant TRKB at 40 nM in presence of ATP by radiometric assay relative to control
[9] = biological target: T2, Serine/threonine-protein kinase TAO3 (Homo sapiens) (UniProt Q9H2K8); assay: Inhibition of human recombinant TAO3 at 15 nM related to control ULK1
T2 sequence (whole entry): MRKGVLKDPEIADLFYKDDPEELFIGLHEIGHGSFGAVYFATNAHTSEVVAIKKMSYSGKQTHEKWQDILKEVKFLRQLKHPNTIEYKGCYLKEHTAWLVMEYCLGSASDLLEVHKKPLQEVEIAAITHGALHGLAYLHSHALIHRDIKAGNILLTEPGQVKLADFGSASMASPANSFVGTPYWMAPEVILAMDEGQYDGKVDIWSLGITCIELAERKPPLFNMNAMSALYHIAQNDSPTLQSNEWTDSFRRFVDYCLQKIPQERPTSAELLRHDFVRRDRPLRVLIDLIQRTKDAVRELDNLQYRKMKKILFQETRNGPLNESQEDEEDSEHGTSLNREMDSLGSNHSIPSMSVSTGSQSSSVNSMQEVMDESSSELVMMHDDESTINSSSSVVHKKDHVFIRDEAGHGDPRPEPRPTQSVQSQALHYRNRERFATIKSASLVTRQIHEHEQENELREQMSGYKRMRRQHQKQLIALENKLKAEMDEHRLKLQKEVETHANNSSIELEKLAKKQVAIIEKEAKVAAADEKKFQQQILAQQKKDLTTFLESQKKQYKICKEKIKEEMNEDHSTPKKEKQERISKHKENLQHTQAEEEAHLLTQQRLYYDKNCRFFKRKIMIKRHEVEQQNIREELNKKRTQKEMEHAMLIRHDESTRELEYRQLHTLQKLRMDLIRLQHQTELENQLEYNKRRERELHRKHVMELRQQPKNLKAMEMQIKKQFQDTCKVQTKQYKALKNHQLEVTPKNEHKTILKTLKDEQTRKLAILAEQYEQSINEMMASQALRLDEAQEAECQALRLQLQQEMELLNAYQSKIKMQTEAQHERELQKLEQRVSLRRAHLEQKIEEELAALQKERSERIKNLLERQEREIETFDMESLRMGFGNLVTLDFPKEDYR

[10] = biological target: Receptor-type tyrosine-protein kinase FLT3 (Homo sapiens) (UniProt P36888); assay: Inhibition of human recombinant FLT3 at 15 nM related to control ULK1
Sequence of Receptor-type tyrosine-protein kinase FLT3 (Homo sapiens) (P36888 whole entry): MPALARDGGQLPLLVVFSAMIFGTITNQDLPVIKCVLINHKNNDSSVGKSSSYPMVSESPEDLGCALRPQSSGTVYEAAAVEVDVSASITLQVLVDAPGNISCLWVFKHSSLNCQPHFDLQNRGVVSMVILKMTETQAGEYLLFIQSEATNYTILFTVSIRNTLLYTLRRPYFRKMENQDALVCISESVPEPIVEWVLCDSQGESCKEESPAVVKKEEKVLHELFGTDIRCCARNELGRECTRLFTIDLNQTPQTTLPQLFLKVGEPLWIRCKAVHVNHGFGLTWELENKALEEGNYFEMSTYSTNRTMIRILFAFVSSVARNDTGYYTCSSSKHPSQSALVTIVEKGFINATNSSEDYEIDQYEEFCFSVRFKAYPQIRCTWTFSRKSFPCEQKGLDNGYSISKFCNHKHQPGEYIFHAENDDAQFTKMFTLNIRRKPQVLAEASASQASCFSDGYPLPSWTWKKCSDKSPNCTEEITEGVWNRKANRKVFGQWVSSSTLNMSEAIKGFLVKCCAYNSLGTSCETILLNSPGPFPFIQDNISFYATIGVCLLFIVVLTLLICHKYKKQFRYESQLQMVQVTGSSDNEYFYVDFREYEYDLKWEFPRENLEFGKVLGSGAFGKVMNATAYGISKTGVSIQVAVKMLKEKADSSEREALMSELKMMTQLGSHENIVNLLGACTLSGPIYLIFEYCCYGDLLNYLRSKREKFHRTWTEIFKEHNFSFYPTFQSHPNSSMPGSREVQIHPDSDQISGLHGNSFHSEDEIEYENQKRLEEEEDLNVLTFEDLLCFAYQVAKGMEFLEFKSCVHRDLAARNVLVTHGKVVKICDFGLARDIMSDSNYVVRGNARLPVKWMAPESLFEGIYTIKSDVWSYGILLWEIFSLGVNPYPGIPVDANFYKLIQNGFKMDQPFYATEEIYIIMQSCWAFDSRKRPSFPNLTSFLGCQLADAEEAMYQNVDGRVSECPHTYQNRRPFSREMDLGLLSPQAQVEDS

inhibition [1]: 0%
fold change (FC) [2]: 0
fold change (FC) [4]: 0.05
inhibition [5]: 39%
SMILES: CNC(=O)c1ccccc1Oc1nc(Nc2cc(OC)c(OC)c(OC)c2)ncc1Br
fold change (FC) [3]: 0.14

inhibition [6]: 39%
fold change (FC) [7]: 0.07
inhibition [8]: 19%
SMILES: O=C(N[C@@H](C1CC1)C(F)(F)F)c1cc(-c2cnn3cc(-c4ccc(F)cc4)cnc23)cs1

fold change (FC) [9]: 0.01
fold change (FC) [10]: 0.77
SMILES: CC(C)[C@H](NC(=O)c1cc(-c2cnn3cc(-c4ccc(OCCN5CCCCC5)cc4)cnc23)cs1)C(F)(F)F
